The conditions of data set [1]: rat; cited from earlier work.
Another data set has as its system Hep G2 cells. The data set can be described thus: Biosynthesis of bile acids from cholestane-3β,5α,6β-triol in Hep G2 cells. The class given is in vitro ADME, human. Conditions: 2.5 ng/mL, 24 h, conditioned medium. The procedure:
To explore the biosynthetic route of the bile acids, the human hepatoblastoma-derived cell line Hep G2 was incubated with cholestane-3β,5α,6β-triol and 7,7,22,22,22-d4-cholestane-3β,5α,6β-triol. Hep G2 cells (1×10^6 cells/well) were seeded in a 6-well plate in triplicate and maintained in Dulbecco's modified Eagle's medium supplemented with 15% fetal calf serum and 100 U of penicillin G/mL and […] streptomycin sulfate at 37° C. in a humidified atmosphere with 5% CO2. Hep G2 cells were treated when they were 80% confluent. For the treatment, 100× stock solutions were made in DMSO for triol and d4-triol. DMSO concentration never exceeded 1% in the culture medium. […] The supernatant was transferred to a glass HPLC insert and analyzed immediately after preparation by the LC-MS/MS.
LC-MS/MS analysis was conducted on a Shimadzu (Columbia, Md.) Prominence UFLC system coupled with an Applied Biosystems/MDS Sciex (Ontario, Canada) 4000QTRAP mass spectrometer using multiple reaction monitoring (MRM). […] Data were acquired and analyzed by Analyst software (version 1.5.2). […] FIG. 40 depicts synthetic bile acid A detected by MRM transition m/z 407→407. FIG. 41 depicts bile acid A generated from cholestane-3β,5α,6β-triol in HepG2 cells and detected by MRM transition m/z 407→407. […]

Data set [2] is described as follows: Sample stability of bile acid B in dried blood spots, whole blood, processed samples, stock and working solutions. The class given is physicochemical. Here is the method: Sample stability. The storage stability of dried blood spots and processed sample stabilities in the autosampler were determined at the LQC and HQC concentration levels (n=3). Storage stability of bile acid B in dried blood spots was tested at −20° C. and room temperature for 66 days, and at 37° C. for 90 hours. In the autosampler, stability was tested over seven days by injecting the first batch of the validation samples. The LQC and HQC in whole blood were placed on benchtop at room temperature for 27 hours and then spotted onto newborn screening cards to examine stability of bile acid B in whole blood. Stock solution stability was established by quantification of samples from dilution of two stock solutions that have been stored at −20° C. for 91 days and at room temperature on the bench for 22 hours, respectively, to the final solution (500 ng/mL in water). The storage stability of internal standard working solution was tested at room temperature for 12 days. A fresh standard curve was established each time. Bile acid B was stable in dried blood spots in newborn screening cards for up to 66 days at room temperature storage.
Stability in whole blood, dried blood spots, processed samples, stock and working solutions. The allowable time bile acid B spiked whole blood sample can remain at room temperature prior to spoiling on a newborn screening card was determined with LQC and HQC blood samples, which were remained at room temperature for 27 hours prior to spotting. Three replicates were assessed and the accuracy (within ±4.5% RE) and precision (<7.5% CV) were within the quality control acceptance criteria stated above. Bile acid B is therefore considered stable in whole blood for 27 hours prior to spotting.
The stability of bile acid B in dried blood spots on the newborn screening cards stored at room temperature and −20° C. for 66 days and at 37° C. for 90 hours was assessed by comparisons of three replicates of stored LQC and HQC against freshly prepared calibration standards and QC samples. […] Processed sample stability was assessed by re-injection of LQC and HQC together with calibration curve from one accuracy/precision run after storage in the autosampler at 4° C. for 7 days.
Stock solution stability of bile acid B and internal standard in acetonitrile-water (1:1) was established for 22 hours at room temperature. The internal standard in aqueous working solution (1% sodium dodecyl sulfate (SDS) and 50 mM trisodium citrate at pH 12) was stable for 12 days at room temperature.

The values that follow come from patent US10983112B2, “Bile acid biomarkers for Niemann-Pick diseases, methods and uses therefor” (Washington University, priority 2014, dated 2021).

Consider `C[C@H](CCC(=O)O)[C@H]1CCC2C3C[C@@H](O)[C@@]4(O)C[C@@H](O)CC[C@]4(C)C3CC[C@@]21C` (stereo partly drawn) [Bile acid A, 3β,5α,6β-trihydroxycholanic acid], for which the “metabolite of cholestane-3β,5α,6β-triol” value in data set [1] is “major metabolite”.
As for `C[C@H](CCC(=O)NCC(=O)O)[C@H]1CC[C@H]2[C@@H]3C[C@@H](O)[C@@]4(O)C[C@@H](O)CC[C@]4(C)[C@H]3CC[C@]12C` [Bile acid B, N-(3β,5α,6β-trihydroxy-cholan-24-oyl)glycine], the “formation from cholestane-3β,5α,6β-triol or d4-triol” value in the data set with Hep G2 cells is “No bile acid B was found”. In addition, the stock solution stability in data set [2] (acetonitrile-water (1:1), room temperature) was 22 h. Also, the processed sample stability entry in data set [2] (autosampler at 4° C. for 7 days) is “Stability was demonstrated”. Moreover, the “stability in dried blood spots on newborn screening cards” value in data set [2] (room temperature) is “up to 66 days”; in data set [2] (room temperature, listed as bile acid B), “at least 66 days”; in data set [2] (shipping conditions (37° C.)), 90 h; in data set [2] (−20° C.), “at least 66 days”. For the same molecule, the “stability in whole blood prior to spotting” value in data set [2] (room temperature, LQC and HQC) was determined as 27 h.
